Columns and labels:
Capan-1 GR = test: Effect of gemcitabine on gemcitabine-resistant cell lines (RTCA); type: cell-based, human; conditions: 1.6 uM and 3.2 uM; without medium change or with medium change at 1 h or 3 h; compared to parental cell line
Text: (§1) Gemcitabine-based therapy is currently the standard first-line therapy for patients with advanced PDAC. However, tumor recurrence after gemcitabine treatment may lead to short patient survival (Jia Y, Gu D, Wan J, et al. The role of GLI-SOX2 signaling axis for gemcitabine resistance in pancreatic cancer. Oncogene 2019; 38 (10): 1764-77. doi: 10.1038/s41388-018-0553-0 [published Online First: 2018 Oct. 31]). Therefore, it is critical to verify whether […] cells are effective in killing gemcitabine-resistant tumors in vitro and in vivo. In this case, we established two gemcitabine-resistant (GR) cell lines (Capan-1 GR and MIA Paca-2 GR) by exposing parental Capan-1 and MIA Paca-2 cells to increasing concentrations of gemcitabine for 9 months. […] Compared to the parental cell lines, Capan-1 GR and MIA Paca-2 GR were not killed by gemcitabine at concentrations of 1.6 uM and 3.2 uM, either without medium change or with medium change at 1 h or 3 h (FIG. 6B, FIGS. 10 and 11). We explored the anti-PC effect of […] cells targeting Capan-1 GR and MIA Paca-2 GR cells in vitro. […] We also measured the levels of CD25, CD69, CD107a, TNF-α, and IFN-γ expression of […] cells after co-incubation with GR cells and the parental cells. […] Next, we evaluated the therapeutic effect of […] cells against Capan-1 GR cells in vivo. The parental Capan-1 cells were injected as control.

MIA Paca-2 GR = test: as above; type: cell-based, human; conditions: 1.6 uM and 3.2 uM; without medium change or with medium change at 1 h or 3 h; compared to parental cell line
Text: as §1

Nc1ccn([C@@H]2O[C@H](CO)[C@@H](O)C2(F)F)c(=O)n1 [gemcitabine, 2′,2′-difluorodeoxycytidine] was tested, and the “killing by gemcitabine (RTCA)” value (Capan-1 GR) was “not killed” and the “killing by gemcitabine (RTCA)” value (MIA Paca-2 GR) was “not killed”.

— patent US20250360212A1, “COMPOSITIONS AND USES OF PSCA TARGETED CHIMERIC ANTIGEN RECEPTOR MODIFIED CELLS EXPRESSING IL-15” (City of Hope, priority 2023, published 2025)
